# Laboratory results from DBAASP.
# Several values for one entry are separate records, joined by “and”; a condition that tells them apart may be missing. Identical values can stand only once.
# What was measured:
# Test in all cases: ≥ marks a high value that may be exact or a test limit, other limits are often not marked, values filed in µg/mL are converted to µM
# Bacillus subtilis 168 = test system: Bacillus subtilis 168
# Escherichia coli B = test system: Escherichia coli B
# Pseudomonas aeruginosa = test system: Pseudomonas aeruginosa
# Staphylococcus aureus = test system: Staphylococcus aureus
# [1] = test system: Acinetobacter baumannii ATCC 19606
# Acinetobacter baumannii = test system: Acinetobacter baumannii
# [2] = test system: Escherichia coli ATCC 25922
# Escherichia coli = test system: Escherichia coli
# [3] = test system: Klebsiella pneumoniae ATCC 13883
# Klebsiella pneumoniae = test system: Klebsiella pneumoniae
# [4] = test system: Pseudomonas aeruginosa ATCC 27853
# [5] = test system: Staphylococcus aureus ATCC 25923
# [6] = test system: Escherichia coli DH5alpha
# [7] = test system: Salmonella enterica subsp. enterica serovar Typhimurium ATCC 14028
# Micrococcus luteus = test system: Micrococcus luteus
# [8] = test system: Pseudomonas aeruginosa ATCC 10145
# [9] = test system: Escherichia coli ATCC 11775
smiles,measurement,setting,value
CC[C@H](C)[C@H](NC(=O)[C@H](CC(C)C)NC(=O)[C@H](Cc1cnc[nH]1)NC(=O)CNC(=O)[C@H](CC(C)C)NC(=O)[C@@H](NC(=O)[C@H](CCCCN)NC(=O)[C@H](CO)NC(=O)[C@H](Cc1c[nH]c2ccccc12)NC(=O)[C@H](CCSC)NC(=O)CN)[C@@H](C)CC)C(=O)N[C@@H](CCCCN)C(N)=O [GMWSKILGHLIK],MIC,Bacillus subtilis 168,1.3 µM
same,MIC,Escherichia coli B,7.2 µM
same,MIC,Pseudomonas aeruginosa,65 µM
same,MIC,Staphylococcus aureus,15.8 µM
CC[C@H](C)[C@H](NC(=O)[C@@H](N)CCCCN)C(=O)NCC(=O)N[C@@H](CCCCN)C(=O)N[C@@H](C)C(=O)N[C@@H](CC(C)C)C(=O)NCC(=O)N[C@@H](CCCCN)C(=O)N[C@@H](C)C(=O)N[C@@H](CC(C)C)C(=O)N[C@@H](CCCCN)C(=O)N[C@@H](C)C(=O)N[C@@H](CC(C)C)C(=O)NCC(=O)N[C@@H](CCCCN)C(=O)N[C@@H](C)C(=O)N[C@@H](CC(C)C)C(=O)NCC(=O)N[C@@H](CCCCN)C(=O)N[C@@H](C)C(N)=O [KIGKALGKALKALGKALGKA],MIC,[1],2 µM
same,MIC,Acinetobacter baumannii,≥ 45.3 µM
same,MIC,[2],8 µM
same,MIC,Escherichia coli,45.3 µM
same,MIC,[3],16 µM
same,MIC,Klebsiella pneumoniae,16 µM
same,MIC,[4],8 µM
same,MIC,Pseudomonas aeruginosa,22.6 µM
same,MIC,[5],16 µM and 22.6 µM
same,MIC,Staphylococcus aureus,16 µM
CC[C@H](C)[C@H](NC(=O)[C@H](Cc1cnc[nH]1)NC(=O)[C@H](CCCCN)NC(=O)[C@H](Cc1c[nH]c2ccccc12)NC(=O)[C@H](CC(C)C)NC(=O)[C@H](CO)NC(=O)[C@H](CCSC)NC(=O)[C@H](Cc1c[nH]c2ccccc12)NC(=O)[C@H](CCCCN)NC(=O)CN)C(=O)N[C@@H](CC(C)C)C(=O)N[C@@H](CCCCN)C(N)=O [GKWMSLWKHILK],MIC,Bacillus subtilis 168,1.4 µM
same,MIC,Escherichia coli B,8 µM
same,MIC,Pseudomonas aeruginosa,32.5 µM
same,MIC,Staphylococcus aureus,27 µM
CC[C@H](C)[C@H](NC(=O)[C@H](Cc1cnc[nH]1)NC(=O)[C@H](C)NC(=O)[C@H](CCSC)NC(=O)[C@H](CC(N)=O)NC(=O)[C@H](CCCCN)NC(=O)[C@H](CCCCN)NC(=O)[C@@H](NC(=O)[C@@H](NC(=O)[C@H](CCCCN)NC(=O)[C@H](C)NC(=O)[C@H](Cc1ccccc1)NC(=O)[C@H](CC(C)C)NC(=O)[C@H](CCCCN)NC(=O)[C@@H]1CCCN1C(=O)[C@H](CC(C)C)NC(=O)[C@@H](N)Cc1ccccc1)[C@@H](C)CC)[C@@H](C)O)C(=O)N[C@@H](CCCN=C(N)N)C(=O)N[C@@H](CS)C(=O)O [FLPKLFAKITKKNMAHIRC],MIC,[6],17 µM and 12 µM
same,MIC,[3],12 µM and 10 µM
same,MIC,[4],15 µM
same,MIC,[7],15 µM
CC(C)C[C@H](NC(=O)CNC(=O)[C@H](CC(C)C)NC(=O)CNC(=O)[C@H](CC(N)=O)NC(=O)[C@H](CC(C)C)NC(=O)[C@H](CC(C)C)NC(=O)[C@H](CC(N)=O)NC(=O)CNC(=O)[C@H](CC(C)C)NC(=O)[C@@H](NC(=O)CNC(=O)[C@H](CC(C)C)NC(=O)[C@H](CC(C)C)NC(=O)CN)[C@@H](C)O)C(N)=O [GLLGTLGNLLNGLGL],MIC,Micrococcus luteus,≥ 35.1 µM
C[C@H](NC(=O)[C@H](C)NC(=O)[C@H](CCCCN)NC(=O)[C@H](CCCCN)NC(=O)[C@H](C)NC(=O)[C@H](C)NC(=O)[C@H](CCCCN)NC(=O)[C@H](CCCCN)NC(=O)[C@H](C)NC(=O)[C@H](Cc1ccccc1)NC(=O)[C@H](CCCCN)NC(=O)[C@H](CCCCN)NC(=O)[C@H](C)NC(=O)[C@H](Cc1ccccc1)NC(=O)[C@@H](N)CCCCN)C(=O)N[C@@H](CCCCN)C(=O)O [KFAKKFAKKAAKKAAK],MIC,[8],≥ 142 µM
NCCCC[C@H](NC(=O)[C@H](Cc1c[nH]c2ccccc12)NC(=O)[C@H](CCC(N)=O)NC(=O)[C@H](Cc1c[nH]c2ccccc12)NC(=O)[C@H](CCCCN)NC(=O)[C@H](Cc1c[nH]c2ccccc12)NC(=O)[C@H](CCC(N)=O)NC(=O)[C@H](Cc1c[nH]c2ccccc12)NC(=O)[C@@H](N)CCCCN)C(=O)O [KWQWKWQWK],MIC,[9],≥ 36 µM
same,MIC,[2],36 µM
same,MIC,[4],143 µM
same,MIC,[5],143 µM
